Results as given in US20050003383A1, “Linoleate isomerase” (Arkion Life Sciences LLC d/b/a Bio-Technical Resources …, priority 1999, published 2005).
Read-outs that look alike come from different tables or passages of the source.

Assays:
[1] = tested on: linoleate isomerase from Clostridium sporogenes; test: C. sporogenes linoleate isomerase kinetic assay, absorbence at 234 nm, partially purified enzyme; format: biochemical; settings: for Activity / Activity (%): cofactor 50 μM, DTT 1 mM; for Activity (%): no cofactor = 100; for effect on isomerase activity: fatty acids and derivatives fixed at 35 μM; for Vmax / Km: compound as substrate; for Km: read-out: Km; for substrate has an inhibitory effect at concentrations above: substrate concentration dependency of isomerization
Protocol: In this experiment, all kinetic experiments were performed in a quartz cuvette (1-cm light-path with a magnetic stirrer) at room temperature using a HP 8452A diode array spectrophotometer. The cuvette was filled with 1 ml of incubation buffer containing 50 μg protein, 0.1 M potassium phosphate, pH7.5, 10 mM NaCl and 10% 1,2-propane diol. The isomerization was initiated by adding a small aliquot (1-2 μl) of freshly diluted substrate-stock (˜[…] linoleic acid) in 1,2-propane diol at 50 seconds. The increase in absorbence at 234 nm was monitored and recorded. […] The amount of product formed was calculated based on a molar extinction coefficient of 24,000.

[2] = molecular target: P. acnes ATCC 6919 linoleate isomerase (Cutibacterium acnes, UniProt Q6A8X5); format: biochemical, Propionibacterium acnes; settings: for inhibition of isomerase activity: EDTA 5 mM, 1,10-phenanthroline 1 mM, p-chloromercuribenzoate 5 μM, N-ethylmaleimide 100 μM
Protocol: Formation of CLA was determined by measuring the absorbence at 234 nm. […] Generally, the isomerase was assayed using an endpoint assay after 30 to 60 minutes incubation at room temperature. FIG. 18 (time course assay at different linoleic acid levels) and FIG. 19 (end point assay at different linoleic acid levels) show the effect of increasing substrate concentration on formation of […].

[3] = Linoleate isomerase characterization (Table 7B), enzymes compared on linoleic acid; format: biochemical
Protocol: Table 7B is a summary of the kinetic data and characterization of linoleate isomerases from P. acnes (crude extract prior to DEAE purification as in Example 11, except that the Vmax was determined using enzyme purified through the chromatofocusing step as in Example 11), L. reuteri (enzyme purified through the gel filtration step as in Example 3), and C. sporogenes (enzyme purified through the gel filtration step as in Example 17), all isolated by the present inventors, and the B. fibrisolvens A-38 linoleate isomerase (crude extract; Kepler and Tove, 1967, J. Biochem. 242:5686-5692). The substrate in these experiments was linoleic acid.

[4] = isomerization of (cis, cis, cis, cis)-6, 9, 12, 15 octadecatetraenoic acid 20 PPM
[5] = isomerization of linoleic acid 10 PPM
[6] = compound as substrate at 10 PPM, activity with linoleic acid set as 100%
[7] = compound added at 35 μM, substrate LA 35 μM, pH 7.5, LA alone = 100%

In the case of `O[C@H](CS)[C@H](O)CS` (racemic) [DTT, dithiothreitol], the “Activity” value [1, 4] is reported as 5.9 nmol/min, the “Activity (%)” value [1, 4] is reported as 95% and the “Activity” value [1, 5] is reported as 12.8 ± 3.8 nmol/min. For the same molecule, the “Activity (%)” value [1, 5] was 121%.

In the case of `CCCCCCCC[C@H]1O[C@H]1CCCCCCCC(=O)O` (relative stereo) [epoxystearic acid, (cis)-9:10-epoxyoctadecanoic], the “RELATIVE ACTIVITY %” value [1, 6] is reported as 0%.

With `CCCCC/C=C\C/C=C\CCCCCCCCCC(=O)OC` [(cis, cis)-11, 14 eicosadienoic acid methyl ester] the “RELATIVE ACTIVITY %” value [1, 6] was 0%.

In the case of `CCCCC/C=C\C/C=C\CCCCCCCCCC(=O)O` [(cis, cis)-11, 14 eicosadienoic acid], the “RELATIVE ACTIVITY %” value [1, 7] is reported as 0% and the “RELATIVE ACTIVITY %” value [1, 6] is reported as 20%.

With `CCCCC/C=C\C/C=C\CCCCCCCCCCCC(=O)O` [(cis, cis)-13, 16 docosadienoic acid] the “RELATIVE ACTIVITY %” value [1, 6] was 0%.

In the case of `CCCCC/C=C\C/C=C\C/C=C\CCCCCCC(=O)O` [(cis, cis, cis)-8, 11, 14 eicosatrienoic acid], the “RELATIVE ACTIVITY %” value [1, 6] is reported as 0%.

With `Nc1ncnc2c1ncn2[C@@H]1O[C@H](COP(=O)(O)OP(=O)(O)O)[C@@H](O)[C@H]1O` [ADP] the “Activity” value [1, 4] was 5.7 nmol/min, the “Activity (%)” value [1, 4] was 92% and the “Activity” value [1, 5] was 11.1 ± 1.7 nmol/min. The “Activity (%)” value [1, 5] was 105% and the “effect of possible cofactors on isomerase activity” value (“effect of possible cofactors” for short) ([2]; 60 minute assays) was “No significant effect”.

For `Nc1ncnc2c1ncn2[C@@H]1O[C@H](COP(=O)(O)OP(=O)(O)OP(=O)(O)O)[C@@H](O)[C@H]1O` [ATP], the “Activity” value [1, 4] was 6.1 nmol/min, the “Activity (%)” value [1, 4] was 98% and the “Activity” value [1, 5] was 11.1 ± 1.4 nmol/min. For the same molecule, the “Activity (%)” value [1, 5] was 105% and the “effect of possible cofactors” value ([2]; 60 minute assays) was “No significant effect”.

With `[Ca]` [Calcium] the “effect of possible cofactors” value ([2]; 60 minute assays) was “no effect”.

For `CC(C)(COP(=O)(O)OP(=O)(O)OC[C@H]1O[C@@H](n2cnc3c(N)ncnc32)[C@H](O)[C@@H]1OP(=O)(O)O)[C@@H](O)C(=O)NCCC(=O)NCCS` [CoA], the “Activity” value [1, 4] was 6.5 nmol/min and the “Activity (%)” value [1, 4] was 105%.

With `Cc1cc2nc3c(=O)[nH]c(=O)nc-3n(C[C@H](O)[C@H](O)[C@H](O)COP(=O)(O)OP(=O)(O)OC[C@H]3O[C@@H](n4cnc5c(N)ncnc54)[C@H](O)[C@@H]3O)c2cc1C` [FAD] the “effect of possible cofactors” value ([2]; 60 minute assays) was “No significant effect”.

For `Cc1cc2nc3c(=O)[nH]c(=O)nc-3n(C[C@H](O)[C@H](O)[C@H](O)COP(=O)(O)O)c2cc1C` [FMN], the “effect of possible cofactors” value ([2]; 60 minute assays) was “No significant effect”.

In the case of `CCN1C(=O)C=CC1=O` [N-ethylmaleimide], the “inhibition of isomerase activity” value [2] is reported as “not inhibited”.

With `NC(=O)C1=CN([C@@H]2O[C@H](COP(=O)(O)OP(=O)(O)OC[C@H]3O[C@@H](n4cnc5c(N)ncnc54)[C@H](O)[C@@H]3O)[C@@H](O)[C@H]2O)C=CC1` [NADH] the “Activity” value [1, 4] was 6.4 nmol/min, the “Activity (%)” value [1, 4] was 103% and the “Activity (%)” value [1, 5] was 99%. The “effect of possible cofactors” value ([2]; 60 minute assays) was “No significant effect”.

In the case of `NC(=O)C1=CN([C@@H]2O[C@H](COP(=O)(O)OP(=O)(O)OC[C@H]3O[C@@H](n4cnc5c(N)ncnc54)[C@H](OP(=O)(O)O)[C@@H]3O)[C@@H](O)[C@H]2O)C=CC1` [NADPH], the “Activity” value [1, 4] is reported as 6.3 nmol/min, the “Activity (%)” value [1, 4] is reported as 102% and the “Activity” value [1, 5] is reported as 11.1 ± 1.5 nmol/min. For the same molecule, the “Activity (%)” value [1, 5] was 105% and the “effect of possible cofactors” value ([2]; 60 minute assays) was “No significant effect”.

With `NC(=O)c1ccc[n+]([C@@H]2O[C@H](COP(=O)([O-])OP(=O)(O)OC[C@H]3O[C@@H](n4cnc5c(N)ncnc54)[C@H](OP(=O)(O)O)[C@@H]3O)[C@@H](O)[C@H]2O)c1` [NADP] the “effect of possible cofactors” value ([2]; 60 minute assays) was “No significant effect”.

With `NC(=O)c1ccc[n+]([C@@H]2O[C@H](COP(=O)([O-])OP(=O)(O)OC[C@H]3O[C@@H](n4cnc5c(N)ncnc54)[C@H](O)[C@@H]3O)[C@@H](O)[C@H]2O)c1` [NAD] the “Activity” value [1, 4] was 5.6 nmol/min, the “Activity (%)” value [1, 4] was 90% and the “Activity” value [1, 5] was 10.8 ± 1.3 nmol/min. The “Activity (%)” value [1, 5] was 102% and the “effect of possible cofactors” value ([2]; 60 minute assays) was “No significant effect”.

With `CCCCCCCC/C=C\CCCCCCCCCCCC(=O)O` [erucic acid, (cis)-13-docosaenoic acid] the “RELATIVE ACTIVITY %” value [1, 6] was 0%.

In the case of `N[C@@H](CCC(=O)N[C@@H](CS)C(=O)NCC(=O)O)C(=O)O` [glutathione], the “effect of possible cofactors” value [2] is reported as “No significant effect”.

For `CCCCC/C=C/C/C=C/CCCCCCCC(=O)O` [linolelaidic acid, (trans, trans)-9, 12-octadecadienoic acid], the “RELATIVE ACTIVITY %” value [1, 7] was 19% and the “RELATIVE ACTIVITY %” value [1, 6] was 0%.

For `CCCCC/C=C\C/C=C\CCCCCCCCO` [linoleyl alcohol, (cis, cis)-9, 12-octadecadien-1-ol], the serves as substrate [1] was “do not serve as substrates”, the “RELATIVE ACTIVITY %” value [1, 7] was 81% and the “RELATIVE ACTIVITY %” value [1, 6] was 0%. The “effect on isomerase activity” value [1] was “inhibitors”.

For `[Mg]` [magnesium], the “effect of possible cofactors” value ([2]; 60 minute assays) was “no effect”.

With `CCCCC/C=C\C/C=C\CCCCCCCC(=O)OC` [methyl linoleate, (cis, cis)-linoleic acid methyl ester] the serves as substrate [1] was “do not serve as substrates”, the “RELATIVE ACTIVITY %” value [1, 7] was 69% and the “RELATIVE ACTIVITY %” value [1, 6] was 0%. For the same molecule, the “effect on isomerase activity” value [1] was “inhibitors”.

For `O=C(O)c1cc[c]([Hg][Cl])cc1` [p-chloromercuribenzoate], the “inhibition of isomerase activity” value [2] was “not inhibited”.

With `CCCCCCCCCCCCCCCC(=O)O` [palmitic acid, hexadecanoic acid] the “RELATIVE ACTIVITY %” value [1, 7] was 93%.

With `CCCCCC/C=C\CCCCCCCC(=O)O` [palmitoleic acid, (cis)-9 hexadecenoic acid] the “RELATIVE ACTIVITY %” value [1, 7] was 27%, the “RELATIVE ACTIVITY %” value [1, 6] was 0% and the Ki ([1]; inhibition of linoleic acid isomerization, calculated from secondary plots, read-out: inhibition constants (Ki)) was 33.1 µM.

In the case of `CCCCCCCCCCCCCCCCCC(=O)O` [stearic acid, octadecanoic acid], the “RELATIVE ACTIVITY %” value [1, 7] is reported as 107%.

With `CC/C=C\C/C=C\C/C=C\C/C=C\CCCCC(=O)O` [stearidonic acid, (cis, cis, cis, cis)-6, 9, 12, 15 octadecatetraenoic acid] the Vmax [1] was 204 nmole/min/mg protein, the “RELATIVE ACTIVITY %” value [1, 6] was 60% and the Km [1] was 18.9 µM. For the same molecule, the “substrate has an inhibitory effect at concentrations above” value [1] was > 120 µM.

In the case of `CCCCC/C=C\C/C=C\C/C=C\CCCCC(=O)O` [γ-linolenic acid, (cis, cis, cis)-6,9, 12-octadecatrienoic acid], the Vmax [1] is reported as 236 nmole/min/mg protein, the “RELATIVE ACTIVITY %” value [1, 6] is reported as 77% and the Km [1] is reported as 23.8 µM. For the same molecule, the “substrate has an inhibitory effect at concentrations above” value [1] was > 15 µM.

B1: P. acnes: (trans, cis)-10,12-linoleate isomerase from Propionibacterium acnes ATCC 6919, SEQ ID NO:61 (protein)
chain: MSISKDSRIAIIGAGPAGLAAGMYLEQAGFHDYTILERTDHVGGKCHSPNYHGRRYEMGAIMGVPSYDTIQEIMDRTGDKVDGPKLRREFLHEDGEIYVPEKDPVRGPQVMAAVQKLGQLLATKYQGYDANGHYNKVHEDLMLPFDEFLALNGCEAARDLWINPFTAFGYGHFDNVPAAYVLKYLDFVTMMSFAKGDLWTWADGTQAMFEHLNATLEHPAERNVDITRITREDGKVHIHTTDWDRESDVLVLTVPLEKFLDYSDADDDEREYFSKIIHQQYMVDACLVKEYPTISGYVPDNMRPERLGHVMVYYHRWADDPHQIITTYLLRNHPDYADKTQEECRQMVLDDMETFGHPVEKIIEEQTWYYFPHVSSEDYKAGWYEKVEGMQGRRNTFYAGEIMSFGNFDEVCHYSKDLVTRFFV
modifications: Propionibacterium acnes
In the case of B1, the “Enzyme Solubility” value [3] is reported as “S”, the “CLA Isomer” value ([3]; CLA isomer produced from linoleic acid) is reported as 10,12 and the “Optimal pH” value ([3]; substrate linoleic acid) is reported as 7.3. For the same molecule, the Km ([3]; substrate linoleic acid, crude extract) was 17.2 µM and the Vmax ([3]; substrate linoleic acid, purified enzyme) was 478^5 nmol/min/mg.
